For one experiment, the target named is T1, GT05 (UGT72B1 (Q9M156)) (Arabidopsis thaliana, UniProt Q9M156).
T1 construct: made in house; host or cells: PURExpress In Vitro Protein Synthesis Kit (NEB E6800L), cell-free transcription/translation, linear DNA amplified from pET15b construct
T1 sequence (Q9M156 1-480): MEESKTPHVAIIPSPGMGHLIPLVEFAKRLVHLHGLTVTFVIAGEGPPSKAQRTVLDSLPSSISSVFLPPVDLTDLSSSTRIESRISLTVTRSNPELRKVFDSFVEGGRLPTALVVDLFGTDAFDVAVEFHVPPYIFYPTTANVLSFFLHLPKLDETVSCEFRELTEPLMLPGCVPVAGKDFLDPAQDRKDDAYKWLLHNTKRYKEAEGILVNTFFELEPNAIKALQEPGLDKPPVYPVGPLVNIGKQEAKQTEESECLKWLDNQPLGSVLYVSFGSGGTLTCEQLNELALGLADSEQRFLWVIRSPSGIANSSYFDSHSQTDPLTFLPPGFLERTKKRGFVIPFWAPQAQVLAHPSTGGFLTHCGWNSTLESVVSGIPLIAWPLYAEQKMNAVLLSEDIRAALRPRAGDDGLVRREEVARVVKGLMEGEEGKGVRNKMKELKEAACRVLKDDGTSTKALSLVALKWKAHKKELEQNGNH
Briefly: qPCR DLEnCA, cell-free transcription/translation-derived GT05. The experiment is classed as biochemical. The conditions noted are these: GT05 DNA 5 nM, chemical 1 mM, UDP-Glc 2 μM, probe 0.2 nM; low recovery = substrate glucosylated. How it is done:
(§1) FIG. 4A-FIG. 4D. qPCR DLEnCA and substrate specificity studies. A. Chemicals used as substrates in subsequent assays: (i) known substrates of OleD; (ii) flavone library; (iii) known substrates of GT05 (UGT72B1 (Q9M156)) and GT06 (UGT89B1 (AT1 G73880)). B. DNA encoding OleD (5 nM) was incubated in a cell-free transcription/translation system for 3 hours at 37° C., followed by the addition of chemical (1 mM) and UDP-Glc (2 μM). After a subsequent incubation of 3 hours, TbGT and probe (0.2 nM) were added. After probe purification and MfeI digestion, probe integrity was identified using qPCR. Percent recovery of probe is reported (n=8; error bars=standard error). C. DNA encoding OleD (5 nM) was incubated for 3 hours at 37° C. in a cell-free transcription/translation system, followed by the addition of flavone (1 mM) and UDP-Glc (2 μM). After a subsequent incubation of 3 hours, TbGT and probe (0.2 nM) were added. After probe purification and MfeI addition, probe integrity was identified using qPCR. Percent recovery of probe is reported (n=8; error bars=standard error). D. DNA encoding OleD, GT05, or GT06 (5 nM) were incubated for 3 hours at 37° C. in a cell-free transcription/translation system, followed by the addition of chemical (1 mM) and UDP-Glc (2 μM). After a subsequent incubation of 3 hours, TbGT and probe (0.2 nM) were added. After probe purification and MfeI digestion, probe integrity was identified using qPCR. Percent recovery of probe is reported as a heat map (n=8) (specific recovery figures and percent error can be found in FIG. 16). *=p<0.05 vs. no chemical control.
PCR tubes were used for most reactions. All incubations were performed at 37° C. Assays were initiated upon the addition of linear DNA (5 nM final concentration) to 4 μl PURExpress Solution A and 3 μl PURExpress Solution B. Samples were incubated at 37° C. for 3 hours prior to addition of UDP-Glucose and chemical (1 mM final concentration) in DMSO. Samples were incubated for an additional 3 hours prior to addition of 1 unit T4 Phage β-glucosyltransferase containing 0.2 nM probe. […]

Experiment [1] has as its target T2, GT06 (UGT89B1 (AT1G73880)) (Arabidopsis thaliana, UniProt Q9C9B0).
T2 sequence (Q9C9B0 1-473): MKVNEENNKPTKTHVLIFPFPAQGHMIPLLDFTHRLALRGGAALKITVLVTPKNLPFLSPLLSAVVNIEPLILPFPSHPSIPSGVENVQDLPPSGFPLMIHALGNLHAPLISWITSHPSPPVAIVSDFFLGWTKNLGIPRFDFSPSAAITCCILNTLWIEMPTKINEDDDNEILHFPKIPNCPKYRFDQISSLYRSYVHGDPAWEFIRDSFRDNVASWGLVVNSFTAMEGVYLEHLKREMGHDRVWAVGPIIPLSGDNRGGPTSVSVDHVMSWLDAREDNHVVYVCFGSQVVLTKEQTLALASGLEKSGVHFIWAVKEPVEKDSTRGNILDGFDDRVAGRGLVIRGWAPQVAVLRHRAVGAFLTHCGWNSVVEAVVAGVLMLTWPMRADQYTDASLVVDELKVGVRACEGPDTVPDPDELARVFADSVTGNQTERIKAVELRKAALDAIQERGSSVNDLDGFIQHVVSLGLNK
The experiment can be described thus: qPCR DLEnCA, cell-free transcription/translation-derived GT06. The experiment is classed as biochemical. The conditions noted are these: GT06 DNA 5 nM, chemical 1 mM, UDP-Glc 2 μM, probe 0.2 nM; low recovery = substrate glucosylated. How it is done: as §1, with “After probe purification and MfeI digestion, probe integrity was identified using qPCR. Percent recovery of probe is reported as a heat map (n=8) (specific recovery figures and percent error can be found in FIG. 16). *=p<0.05 vs. no chemical control.” left out

SMILES strings stand for the structures.

Turning to `O=c1c(O)c(-c2ccc(O)cc2)oc2cc(O)cc(O)c12` [I, kaempferol], the recovery of probe at GT05 (UGT72B1 (Q9M156)) worked out at 32%.
`O=C(O)c1ccc(O)cc1` [XI, 4-hydroxybenzoic acid] registered a recovery of probe in experiment [1] of 25%.

The record behind these values is US10829798B2, “DNA-linked enzyme-coupled assays” (THE REGENTS OF THE UNIVERSITY OF CALIFORNIA, priority 2014, dated 2020).
